Measurements published in US8440646B1 (priority 2006, dated 2013).
In brackets after ≈: the same amount, converted by molar mass. Like-named read-outs stand apart in the source and are kept apart here.

What was measured:
B. cereus 98/2620 = experiment: microbe, parasite or virus in culture; type: cell-based; conditions: Bacillus cereus
B. cereus 95/3032 = experiment: microbe, parasite or virus in culture; type: cell-based; conditions: Bacillus cereus
B. cereus 98/2658 = experiment: microbe, parasite or virus in culture; type: cell-based; conditions: Bacillus cereus
B. cereus 97/4144 = experiment: microbe, parasite or virus in culture; type: cell-based; conditions: Bacillus cereus
protein synthesis = conditions: cited from earlier work
S. aureus MRSA5 = experiment: microbe, parasite or virus in culture; type: cell-based; conditions: Staphylococcus aureus
E. faecium 494 = experiment: microbe, parasite or virus in culture; type: cell-based; conditions: Enterococcus faecium
S. pneumoniae 700905 [1] = experiment: microbe, parasite or virus in culture; type: cell-based; conditions: Streptococcus pneumoniae
E. faecalis 29212 = experiment: microbe, parasite or virus in culture; type: cell-based; conditions: Enterococcus faecalis
B. anthracis Vollum1B = experiment: microbe, parasite or virus in culture; type: cell-based; conditions: Bacillus anthracis
B. anthracis Sterne = experiment: microbe, parasite or virus in culture; type: cell-based; conditions: Bacillus anthracis
B. anthracis Ame = experiment: microbe, parasite or virus in culture; type: cell-based; conditions: Bacillus anthracis
B. anthracis V770 = experiment: microbe, parasite or virus in culture; type: cell-based; conditions: Bacillus anthracis
COS-1 = conditions: African green monkey
CHO-K1 = conditions: Chinese hamster
S. pneumoniae 157E [2] = tested on: S. pneumoniae 157E; parameters: species or system mice; conditions: mouse, in vivo
S. pneumoniae 700905 [3] = tested on: S. pneumoniae 700905; parameters: species or system mice; conditions: mouse, in vivo
S. pneumoniae PBS1339 = tested on: S. pneumoniae PBS1339; parameters: species or system mice; conditions: mouse, in vivo
S. aureus RN450 = experiment: microbe, parasite or virus in culture; type: cell-based; conditions: Staphylococcus aureus
S. pneumoniae 157E [4] = experiment: microbe, parasite or virus in culture; type: cell-based; conditions: Streptococcus pneumoniae
[5] = tested on: Protein synthesis of S. aureus RN450; experiment: microbe, parasite or virus in culture; type: cell-based; conditions: for IC50 / IC90: Staphylococcus aureus; for IC50: read-out: Protein synthesis IC50; for IC90: read-out: Protein synthesis IC90
[6] = tested on: Peptidoglycan synthesis of S. aureus RN450; experiment: microbe, parasite or virus in culture; type: cell-based; conditions: for IC50 / IC90: Staphylococcus aureus; for IC50: read-out: Peptidoglycan synthesis IC50; for IC90: read-out: Peptidoglycan synthesis IC90
S. aureus RN4250 = experiment: microbe, parasite or virus in culture; type: cell-based; conditions: for MIC: Staphylococcus aureus, RN4250
16S rRNA = conditions: cited from earlier work

| Compound | MIC (B. cereus 98/2620) [mg/L] | MIC (B. cereus 95/3032) [mg/L] | MIC (B. cereus 98/2658) [mg/L] | MIC (B. cereus 97/4144) [mg/L] | MIC (S. aureus MRSA5) [mg/L] | MIC (S. pneumoniae 700905 [1]) [mg/L] | MIC (S. aureus RN450) [mg/L] | MIC (S. pneumoniae 157E [4]) [mg/L] | IC50 [5] [mg/L] | IC90 [5] [mg/L] | IC50 [6] [mg/L] | IC90 [6] [mg/L] | further results |
| --- | --- | --- | --- | --- | --- | --- | --- | --- | --- | --- | --- | --- | --- |
| CCC[C@@H]1C[C@@H](C(=O)N[C@@H]([C@H]2O[C@H](SC)[C@H](O)[C@@H](O)[C@H]2O)[C@H](C)Cl)N(C)C1 [Clindamycin] | 0.25 (≈ 0.588 µM) | 0.5 (≈ 1.18 µM) | 0.5 (≈ 1.18 µM) | 0.5 (≈ 1.18 µM) |  |  |  |  |  |  |  |  |  |
| CN[C@H](CC(C)C)C(=O)N[C@H]1C(=O)N[C@@H](CC(N)=O)C(=O)N[C@H]2C(=O)N[C@H]3C(=O)N[C@H](C(=O)N[C@H](C(=O)O)c4cc(O)cc(O)c4-c4cc3ccc4O)[C@H](O)c3ccc(c(Cl)c3)Oc3cc2cc(c3O[C@@H]2O[C@H](CO)[C@@H](O)[C@H](O)[C@H]2O[C@H]2C[C@](C)(N)[C@H](O)[C@H](C)O2)Oc2ccc(cc2Cl)[C@H]1O [Vancomycin] | 1 (≈ 0.69 µM) | 1 (≈ 0.69 µM) | 2 (≈ 1.38 µM) | 1 (≈ 0.69 µM) |  |  |  |  |  |  |  |  |  |
| Cc1c2c(c(O)c3c(O)ccc(Cl)c13)C(=O)C1(O)C(=O)C(C(N)=O)=C(O)C(N(C)C)C1C2 (stereo not drawn) [4-epi-anhydrochlorotet] |  |  |  |  |  |  |  |  |  |  |  |  | inhibition of protein synthesis in words (protein synthesis): weak effects |
| CC(C)c1cc(CN2CC=CCC2)c(O)c2c1C[C@H]1C[C@H]3[C@H](N(C)C)C(O)=C(C(N)=O)C(=O)[C@@]3(O)C(O)=C1C2=O [AF] |  |  |  |  | 0.13 (≈ 0.236 µM) | 0.06 (≈ 0.109 µM) |  |  |  |  |  |  | MIC (E. faecium 494): 0.25 mg/L (≈ 0.453 µM); MIC (E. faecalis 29212): 0.13 mg/L (≈ 0.236 µM); MIC (B. anthracis Vollum1B): < 0.03 mg/L; MIC (B. anthracis Sterne): < 0.03 mg/L; MIC (B. anthracis Ame): < 0.03 mg/L; MIC (B. anthracis V770): 0.06 mg/L (≈ 0.109 µM); Tox50 (COS-1): >100 µg/mL; Tox50 (CHO-K1): >100 µg/mL |
| CO/N=C(\C(=O)N[C@@H]1C(=O)N2C(C(=O)O)=C(COC(C)=O)CS[C@H]12)c1csc(N)n1 [Cefotaxime] | 64 (≈ 141 µM) | > 64 | > 64 | 32 (≈ 70.3 µM) |  |  |  |  |  |  |  |  |  |
| CC1(C)S[C@@H]2[C@H](NC(=O)[C@H](N)c3ccccc3)C(=O)N2[C@H]1C(=O)O [Ampicillin, reference compound] |  |  |  |  |  |  |  |  |  |  |  |  | PD50 (S. pneumoniae 157E [2]; iv): 0.6 mg/kg; PD50 (S. pneumoniae 157E [2]; po): 1.1 mg/kg; PD50 (S. pneumoniae 700905 [3]; iv): 43.7 mg/kg; PD50 (S. pneumoniae 700905 [3]; po): >50 mg/kg; PD50 (S. pneumoniae PBS1339; po): 3.2 mg/kg |
| CN(C)[C@@H]1C(O)=C(C(N)=O)C(=O)[C@@]2(O)C(O)=C3C(=O)c4c(O)ccc(-c5ccc(NC(=O)c6ccno6)cc5)c4C[C@H]3C[C@@H]12 [AE] |  |  |  |  | 0.5 (≈ 0.833 µM) | 1 (≈ 1.67 µM) | 0.06 (≈ 0.0999 µM) | 0.13 (≈ 0.216 µM) | 0.07 (≈ 0.117 µM) | 0.62 (≈ 1.03 µM) | 6 (≈ 9.99 µM) | > 32 |  |
| CN(C)C1C(O)=C(C(N)=O)C(=O)C2(O)C(O)=C3C(=O)c4c(O)cccc4C(C)(O)C3CC12 (stereo not drawn) [Tetracycline, reference compound] | 32 (≈ 72 µM) | ≤ 0.06 | ≤ 0.06 | 64 (≈ 144 µM) | 32 (≈ 72 µM) | 32 (≈ 72 µM) | 0.06 (≈ 0.135 µM) | 0.06 (≈ 0.135 µM) | < 0.03 | 0.11 (≈ 0.248 µM) | > 32 | > 32 | susceptibility in words (S. aureus RN4250): resistant; MIC (S. aureus RN4250): 64 mg/L (≈ 144 µM); MIC (E. faecium 494): 64 mg/L (≈ 144 µM); MIC (E. faecalis 29212): 16 mg/L (≈ 36 µM); inhibition of protein synthesis in words (protein synthesis): potent inhibitors of protein synthesis; effect on reactivity of nucleotides within the 16S rRNA (chemical footprint) (16S rRNA): affect the reactivity of nucleotides |
| O=C(O)c1cn(C2CC2)c2cc(N3CCNCC3)c(F)cc2c1=O [Ciprofloxacin, reference compound] |  |  |  |  |  |  |  |  |  |  |  |  | MIC (B. anthracis Vollum1B): 0.25 mg/L (≈ 0.754 µM); MIC (B. anthracis Sterne): 0.25 mg/L (≈ 0.754 µM); MIC (B. anthracis Ame): 0.25 mg/L (≈ 0.754 µM); MIC (B. anthracis V770): 0.12 mg/L (≈ 0.362 µM); PD50 (S. pneumoniae 157E [2]; iv): >50 mg/kg; PD50 (S. pneumoniae 700905 [3]; po): >50 mg/kg |
| CN(C)c1cc(NC(=O)CNC(C)(C)C)c(O)c2c1C[C@H]1C[C@H]3[C@H](N(C)C)C(O)=C(C(N)=O)C(=O)[C@@]3(O)C(O)=C1C2=O [Tigecycline, reference compound] |  |  |  |  |  |  | 2 (≈ 3.41 µM) |  | 0.12 (≈ 0.205 µM) | 0.68 (≈ 1.16 µM) | > 32 | > 32 | macromolecular synthesis profile in words [5]: profile similar to class I compounds; effect on reactivity of nucleotides within the 16S rRNA (chemical footprint) (16S rRNA): chemical footprint similar to that of tetracycline |
| CN(C)[C@@H]1C(O)=C(C(N)=O)C(=O)[C@@]2(O)C(O)=C3C(=O)c4c(O)ccc(-c5ccc(CO)cc5)c4C[C@H]3C[C@@H]12 [AB] |  |  |  |  | 1 (≈ 1.92 µM) | 4 (≈ 7.68 µM) | 0.06 (≈ 0.115 µM) | 0.06 (≈ 0.115 µM) | 0.19 (≈ 0.365 µM) | 1.8 (≈ 3.46 µM) | 18.3 (≈ 35.2 µM) | > 32 |  |
| CN(C)c1ccc(O)c2c1C[C@H]1C[C@H]3[C@H](N(C)C)C(O)=C(C(N)=O)C(=O)[C@@]3(O)C(O)=C1C2=O [Minocycline, reference compound] | 0.5 (≈ 1.09 µM) | ≤ 0.06 | ≤ 0.06 | 0.5 (≈ 1.09 µM) | 2 (≈ 4.37 µM) | 8 (≈ 17.5 µM) | 0.25 (≈ 0.546 µM) | 0.06 (≈ 0.131 µM) | < 0.03 | 0.1 (≈ 0.219 µM) | 4.6 (≈ 10.1 µM) | 20.9 (≈ 45.7 µM) | susceptibility in words (S. aureus RN4250): susceptible; MIC (S. aureus RN4250): 0.5 mg/L (≈ 1.09 µM); MIC (E. faecium 494): 16 mg/L (≈ 35 µM); MIC (E. faecalis 29212): 4 mg/L (≈ 8.74 µM); PD50 (S. pneumoniae 157E [2]; iv): 0.53 mg/kg; PD50 (S. pneumoniae 157E [2]; po): 1.5 mg/kg; PD50 (S. pneumoniae 700905 [3]; iv): >50 mg/kg; PD50 (S. pneumoniae 700905 [3]; po): >50 mg/kg; PD50 (S. pneumoniae PBS1339; iv): 4.5 mg/kg; PD50 (S. pneumoniae PBS1339; po): 3.6 mg/kg; inhibition of protein synthesis in words (protein synthesis): potent inhibitors of protein synthesis; effect on reactivity of nucleotides within the 16S rRNA (chemical footprint) (16S rRNA): affect the reactivity of nucleotides |
| Cc1c2c(c(O)c3c(O)cccc13)C(=O)[C@]1(O)C(=O)C(C(N)=O)=C(O)[C@@H](N(C)C)[C@@H]1C2 [Anhydro-tetracycline, anhydrotetracycline, reference compound] |  |  |  |  |  |  | 2 (≈ 4.69 µM) |  | < 0.03 | < 0.03 | 19.2 (≈ 45 µM) | > 32 | inhibition of protein synthesis in words (protein synthesis): weak effects; effect on reactivity of nucleotides within the 16S rRNA (chemical footprint) (16S rRNA): A similar effect was not seen |
| CC[C@H]1OC(=O)[C@H](C)[C@@H](O[C@H]2C[C@@](C)(OC)[C@@H](O)[C@H](C)O2)[C@H](C)[C@@H](O[C@@H]2O[C@H](C)C[C@H](N(C)C)[C@H]2O)[C@](C)(O)C[C@@H](C)C(=O)[C@H](C)[C@@H](O)[C@]1(C)O [Erythromycin] | 0.06 (≈ 0.0818 µM) | 0.125 (≈ 0.17 µM) | 1 (≈ 1.36 µM) | 0.125 (≈ 0.17 µM) |  |  |  |  |  |  |  |  |  |
| CN(C)[C@@H]1C(O)=C(C(N)=O)C(=O)[C@@]2(O)C(O)=C3C(=O)c4c(O)ccc(C#Cc5ccc(N)cc5)c4C[C@H]3C[C@@H]12 [AA] |  |  |  |  | 0.5 (≈ 0.944 µM) | 1 (≈ 1.89 µM) | 1 (≈ 1.89 µM) | 0.5 (≈ 0.944 µM) | 0.14 (≈ 0.264 µM) | 1.4 (≈ 2.64 µM) | 3.8 (≈ 7.18 µM) | 23 (≈ 43.4 µM) | macromolecular synthesis profile in words [5]: profile similar to class I compounds; effect on peptidoglycan biosynthesis in words [6]: affect peptidoglycan biosynthesis |
